Data on 52 compounds can be found in patent US20130012546A1 (priority 2009, published 2013).

One data set concerns Phytophthora infestans. The class given is in vivo. The settings on record: tomato plants, preventive spray, 100 ppm of active ingredient, evaluated 7 days after inoculation.
A further data set is described as follows: logP(HCOOH) by HPLC. The class given is physicochemical. The settings on record: for log p: HPLC on reversed phase columns, pH 2.7, 0.1% formic acid in water / acetonitrile, linear gradient 10% to 95% acetonitrile, EEC directive 79/831 Annex V.A8.

`CC(C)=NOC(C)C(=O)Nc1nc(CO/N=C(/c2ccccc2)n2nnnc2C)cs1` (centres unmarked) [Example 38] gave an Efficacy % in the data set with Phytophthora infestans of 88%. This compound also gave a log p in “logP(HCOOH) by HPLC” of 3.17.
Taken in the same sequence, the figures for `Cc1nnnn1C(=NOCc1cccc(NC(=O)COC2CCCCCC2)n1)c1ccccc1` [Example 88] were 95% and 4.67.
In turn, `Cc1nnnn1C(=NOCc1cccc(NC(=O)OCC2CC2)n1)c1ccccc1` [Example 17] displayed an Efficacy % in the data set with Phytophthora infestans of 93%. In “logP(HCOOH) by HPLC”, this compound had a log p of 3.52.
In the data set with Phytophthora infestans, `C=CCCOC(C)C(=O)Nc1cccc(CO/N=C(/c2ccccc2)c2nnnn2C)n1` (centres unmarked) [Example 41] displayed an Efficacy % of 100%. Besides, in the data set “logP(HCOOH) by HPLC”, the log p is reported as 3.69.
In turn, `C#CCOC(C)C(=O)Nc1cccc(CO/N=C(/c2ccccc2)n2nnnc2C)n1` (centres unmarked) [Example 52] yielded an Efficacy % with Phytophthora infestans of 93%. The same compound showed a log p in the data set “logP(HCOOH) by HPLC” of 3.11.
As for `CON=C(C(=O)Nc1nc(CON=C(c2ccccc2)c2nnnn2C)cs1)c1ccc(Cl)cc1Cl` [Example 9], the Efficacy % with Phytophthora infestans stood at 95%. This compound had a log p in “logP(HCOOH) by HPLC” of 4.41.
`CC(OC1CCCC1)C(=O)Nc1nc(CO/N=C(/c2ccccc2)c2nnnn2C)cs1` (centres unmarked) [Example 97, 2-(cyclopentyloxy)-N-{4-[({[(Z)-(1-methyl-1H-tetrazol-5-yl)(phenyl)methylene]amino}oxy)methyl]-1,3-thiazol-2-yl}propanamide] had an Efficacy % in the data set on Phytophthora infestans of 95%. For the same compound, the chromatographic logP in the data set “logP(HCOOH) by HPLC” (reversed phase HPLC column, pH 2.7, HCOOH, read-out: logP(HCOOH)) came out at 3.8.
Regarding `Cc1nnnn1C(=NOCc1cccc(NC(=O)COC2CCC2)n1)c1ccccc1` [Example 83], the Efficacy % with Phytophthora infestans is reported as 90%. The log p in the data set “logP(HCOOH) by HPLC” was determined as 3.55.
Taken in the same sequence, the figures for `CON=C(C(=O)Nc1cccc(CON=C(c2ccccc2)c2nnnn2C)n1)c1ccccc1Cl` [Example 2] were 98% and 4.13.
In the data set with Phytophthora infestans, `CON=C(C(=O)Nc1cccc(CON=C(c2ccccc2)c2nnnn2C)n1)c1ccc(Cl)cc1Cl` [Example 1] yielded an Efficacy % of 95%. Moreover, in the data set “logP(HCOOH) by HPLC”, the log p was 4.7.
For `Cn1nnnc1C(=NOCc1csc(NC(=O)COC2CCC2)n1)c1ccccc1` [Example 80], the Efficacy % in the data set with Phytophthora infestans amounted to 90%. The compound also displayed a log p in “logP(HCOOH) by HPLC” of 3.19.
Taken in the same sequence, the figures for `CC(C)=NOC(C)C(=O)Nc1cccc(CO/N=C(/c2ccccc2)c2nnnn2C)n1` (centres unmarked) [Example 32] were 70% and 3.25.
Taken in the same sequence, the figures for `C=CCCOC(C)C(=O)Nc1nc(CO/N=C(/c2ccccc2)n2nnnc2C)cs1` (centres unmarked) [Example 43] were 95% and 3.53.
Taken in the same sequence, the figures for `Cn1nnnc1C(=NOCc1cccc(NC(=O)COC2CCC2)n1)c1ccccc1` [Example 81] were 80% and 3.46.
In the data set with Phytophthora infestans, `Cc1nnnn1C(=NOCc1csc(NC(=O)COC2CCC2)n1)c1ccccc1` [Example 82] came in with an Efficacy % of 90%. Moreover, in the data set “logP(HCOOH) by HPLC”, the log p was 3.25.
Taken in the same sequence, the figures for `CC(OC1CCCCCC1)C(=O)Nc1nc(CON=C(c2ccccc2)c2nnnn2C)cs1` (centres unmarked) [Example 95] were 95% and 4.51.
In the case of `Cc1nnnn1C(=NOCc1csc(NC(=O)OCC2CCCCC2)n1)c1ccccc1` [Example 25], in the data set on Phytophthora infestans, the Efficacy % stood at 93%. This compound displayed a log p in “logP(HCOOH) by HPLC” of 4.41.
The corresponding values for `C#CCOCC(=O)Nc1nc(CON=C(c2ccccc2)c2nnnn2C)cs1` [Example 13] are 85% and 2.64.
`Cn1nnnc1C(=NOCc1cccc(NC(=O)COC2CCCCC2)n1)c1ccccc1` [Example 77] had an Efficacy % in the data set with Phytophthora infestans of 93%. Moreover, in the data set “logP(HCOOH) by HPLC”, the log p is 4.15.
In turn, `CC(=NOCC(=O)Nc1nc(CON=C(c2ccccc2)n2nnnc2C)cs1)C(C)(C)C` [Example 37] registered an Efficacy % in the data set with Phytophthora infestans of 88%. The compound also had a log p in the data set “logP(HCOOH) by HPLC” of 4.04.
Compound `CON=C(C(=O)Nc1nc(CON=C(c2ccccc2)c2nnnn2C)cs1)c1cccc(Cl)c1Cl` [Example 11] returned an Efficacy % with Phytophthora infestans of 95%. The log p in the data set “logP(HCOOH) by HPLC” is on record as 4.27.
In the data set with Phytophthora infestans, `C=CCCOCC(=O)Nc1cccc(CO/N=C(/c2ccccc2)c2nnnn2C)n1` [Example 40] came in with an Efficacy % of 85%. In the data set “logP(HCOOH) by HPLC”, the log p was determined as 3.39.
Take `CON=C(C(=O)Nc1nc(CON=C(c2ccccc2)n2nnnc2C)cs1)c1ccccc1Cl` [Example 27]: the Efficacy % in the data set on Phytophthora infestans was found to be 85%. Further, the log p in the data set “logP(HCOOH) by HPLC” was determined as 3.92.
Turning to `Cc1nnnn1C(=NOCc1cccc(NC(=O)COC2CCCC2)n1)c1ccccc1` [Example 87], in the data set on Phytophthora infestans, the Efficacy % turned out to be 90%. The compound also yielded a log p in the data set “logP(HCOOH) by HPLC” of 3.92.
For the compound `CC(=NOCC(=O)Nc1cccc(CON=C(c2ccccc2)c2nnnn2C)n1)c1ccccc1` [Example 33], the Efficacy % in the data set with Phytophthora infestans came to 80%. This compound also displayed a log p in the data set “logP(HCOOH) by HPLC” of 3.92.
Take `CC(OC1CCCCC1)C(=O)Nc1cccc(CON=C(c2ccccc2)c2nnnn2C)n1` (centres unmarked) [Example 99]: in the data set with Phytophthora infestans, the Efficacy % is listed as 90%. This compound yielded a log p in “logP(HCOOH) by HPLC” of 4.49.
Taken in the same sequence, the figures for `Cc1nnnn1C(=NOCc1cccc(NC(=O)OCCCC2CCCC2)n1)c1ccccc1` [Example 21] were 95% and 5.25.
Regarding `Cc1nnnn1/C(=N\OCc1csc(NC(=O)OC(C)CC2CC2)n1)c1ccccc1` (centres unmarked) [Example 56], in the data set on Phytophthora infestans, the Efficacy % turned out to be 95%. Besides, the log p in the data set “logP(HCOOH) by HPLC” is 3.87.
Consider `Cc1nnnn1C(=NOCc1csc(NC(=O)OCC2CC2)n1)c1ccccc1` [Example 26], for which, in the data set on Phytophthora infestans, the Efficacy % is 70%. Further, in the data set “logP(HCOOH) by HPLC”, the log p is 3.27.
The compound `CC(C)=NOC(C)C(=O)Nc1nc(CO/N=C(/c2ccccc2)c2nnnn2C)cs1` (centres unmarked) [Example 35] came in with an Efficacy % with Phytophthora infestans of 95%. In the data set “logP(HCOOH) by HPLC”, this compound returned a log p of 3.11.
The corresponding values for `Cn1nnnc1C(=NOCc1csc(NC(=O)OCC2CCCCC2)n1)c1ccccc1` [Example 61] are 98% and 4.37.
The corresponding values for `Cc1nnnn1C(=NOCc1cccc(NC(=O)OCCCC2CCCCC2)n1)c1ccccc1` [Example 19] are 95% and 5.62.
In the case of `CON=C(C(=O)Nc1nc(CON=C(c2ccccc2)c2nnnn2C)cs1)c1ccc(Br)cc1` [Example 8], the Efficacy % in the data set with Phytophthora infestans is listed as 93%. Moreover, the log p in “logP(HCOOH) by HPLC” came out at 4.37.
The corresponding values for `CC1CCC(C(C)C)C(OCC(=O)Nc2nc(CON=C(c3ccccc3)c3nnnn3C)cs2)C1` (centres unmarked) [Example 107] are 95% and 5.39.
The corresponding values for `CC(=NOCC(=O)Nc1nc(CON=C(c2ccccc2)c2nnnn2C)cs1)c1ccccc1` [Example 36] are 95% and 3.76.
Regarding `Cc1nnnn1C(=NOCc1csc(NC(=O)C(C)OC2CCCCC2)n1)c1ccccc1` (centres unmarked) [Example 94], the Efficacy % in the data set with Phytophthora infestans is 93%. In “logP(HCOOH) by HPLC”, this compound showed a log p of 4.21.
Consider `Cc1nnnn1C(=NOCc1csc(NC(=O)OCCC2CCCCC2)n1)c1ccccc1` [Example 24], for which, in the data set with Phytophthora infestans, the Efficacy % was 88%. Further, the log p in the data set “logP(HCOOH) by HPLC” amounted to 4.8.
Taken in the same sequence, the figures for `CC(=NOCC(=O)Nc1nc(CON=C(c2ccccc2)c2nnnn2C)cs1)C(C)(C)C` [Example 34] were 90% and 3.99.
The compound `Cn1nnnc1C(=NOCc1cccc(NC(=O)COC2CCCC2)n1)c1ccccc1` [Example 85] gave an Efficacy % with Phytophthora infestans of 95%. In “logP(HCOOH) by HPLC”, the log p came out at 3.83.
In the case of `Cc1nnnn1C(=NOCc1csc(NC(=O)C(C)OC2CCCCCC2)n1)c1ccccc1` (centres unmarked) [Example 96], the Efficacy % with Phytophthora infestans was 98%. The compound also yielded a log p in “logP(HCOOH) by HPLC” of 4.58.
For the compound `C#CCOCC(=O)Nc1cccc(CON=C(c2ccccc2)n2nnnc2C)n1` [Example 22], the Efficacy % in the data set on Phytophthora infestans amounted to 70%. The log p in the data set “logP(HCOOH) by HPLC” is on record as 2.86.
Taken in the same sequence, the figures for `C#CCOCC(=O)Nc1cccc(CON=C(c2ccccc2)c2nnnn2C)n1` [Example 4] were 85% and 2.8.
Compound `CON=C(C(=O)Nc1nc(CON=C(c2ccccc2)n2nnnc2C)cs1)c1ccc(Cl)cc1Cl` [Example 23] displayed an Efficacy % with Phytophthora infestans of 90%. The same compound had a log p in “logP(HCOOH) by HPLC” of 4.49.
For `Cn1nnnc1C(=NOCc1cccc(NC(=O)COC2CCCCCC2)n1)c1ccccc1` [Example 90], the Efficacy % with Phytophthora infestans is given as 100%. For the same compound, in the data set “logP(HCOOH) by HPLC”, the log p is 4.56.
The corresponding values for `Cc1nnnn1C(=NOCc1cccc(NC(=O)COC2CCCCC2)n1)c1ccccc1` [Example 79] are 90% and 4.25.
The compound `CON=C(C(=O)Nc1nc(CON=C(c2ccccc2)c2nnnn2C)cs1)c1ccc(Cl)cc1` [Example 7] showed an Efficacy % with Phytophthora infestans of 95%. Moreover, the log p in the data set “logP(HCOOH) by HPLC” turned out to be 4.27.
The compound `C#CCOC(C)C(=O)Nc1cccc(CO/N=C(/c2ccccc2)c2nnnn2C)n1` (centres unmarked) [Example 50] showed an Efficacy % with Phytophthora infestans of 95%. In the data set “logP(HCOOH) by HPLC”, this compound showed a log p of 3.04.
The corresponding values for `CON=C(C(=O)Nc1cccc(CON=C(c2ccccc2)c2nnnn2C)n1)c1ccc(Cl)cc1` [Example 3] are 75% and 4.51.
Taken in the same sequence, the figures for `C=CCCCOCC(=O)Nc1cccc(CON=C(c2ccccc2)c2nnnn2C)n1` [Example 5] were 95% and 3.78.
The compound `CC(OC1CCCC1)C(=O)Nc1cccc(CON=C(c2ccccc2)c2nnnn2C)n1` (centres unmarked) [Example 98] had an Efficacy % in the data set on Phytophthora infestans of 98%. In the data set “logP(HCOOH) by HPLC”, the log p stood at 4.11.
As for `CC1CCC(C(C)C)C(OCC(=O)Nc2nc(CON=C(c3cccc(F)c3)c3nnnn3C)cs2)C1` (centres unmarked) [Example 109], the Efficacy % with Phytophthora infestans amounted to 84%. In the data set “logP(HCOOH) by HPLC”, this compound registered a log p of 5.47.
Compound `CON=C(C(=O)Nc1nc(CON=C(c2ccccc2)n2nnnc2C)cs1)c1ccc(Cl)cc1` [Example 28] registered an Efficacy % in the data set on Phytophthora infestans of 80%. In “logP(HCOOH) by HPLC”, this compound yielded a log p of 4.32.
